Reference: US20110124626A1, “BENZAZEPINE DERIVATIVES AND THEIR USE AS HISTAMINE H3 ANTAGONISTS” (TAKEDA PHARMACEUTICAL COMPANY LIMITED, priority 2008, published 2011)

Assays:
human H3 receptor [1] = target: T1, human H3 receptor (Homo sapiens, UniProt Q9Y5N1); test: In vitro H3 binding assay (3H-N-α-methyl-histamine competition binding); settings: membranes of CHO-K1 cells expressing human H3 receptor; 2 nM 3H-NαMH; read-out: hH3 binding IC50
T1 construct: expressed in transfected cells
Outline: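 Membranes from CHO-K1 cells stably expressing human H3 (5 μg/well) incubated 1 h at room temperature with compound and 2 nM ³H-NαMH in 50 mM Tris-HCl pH 7.4, 5 mM MgCl2; non-specific binding defined with 1 μM RαMH. Bound radioactivity measured by filtration and scintillation; IC50 from seven-point curves by variable-slope sigmoidal regression.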

human H3 receptor [2] = target: T1, human H3 receptor; test: In vitro H3 functional assay (cAMP response element driven luciferase reporter); type: cell-based; settings: CHO(dhfr+)-cre-luc cells expressing human H3 receptor; RαMH 10 nM, forskolin 1 μM; read-out: hH3 functional IC50
Outline: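 CHO-cre-luc cells stably expressing human H3 were preincubated 5 min with compound, then treated with RαMH (10 nM), IBMX (500 μM) and forskolin (1 μM) for 90 min at 37 °C. CRE-luciferase luminescence was read; IC50 from ten-point half-log curves in duplicate, four-parameter fit.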

T1 sequence (Q9Y5N1 whole entry): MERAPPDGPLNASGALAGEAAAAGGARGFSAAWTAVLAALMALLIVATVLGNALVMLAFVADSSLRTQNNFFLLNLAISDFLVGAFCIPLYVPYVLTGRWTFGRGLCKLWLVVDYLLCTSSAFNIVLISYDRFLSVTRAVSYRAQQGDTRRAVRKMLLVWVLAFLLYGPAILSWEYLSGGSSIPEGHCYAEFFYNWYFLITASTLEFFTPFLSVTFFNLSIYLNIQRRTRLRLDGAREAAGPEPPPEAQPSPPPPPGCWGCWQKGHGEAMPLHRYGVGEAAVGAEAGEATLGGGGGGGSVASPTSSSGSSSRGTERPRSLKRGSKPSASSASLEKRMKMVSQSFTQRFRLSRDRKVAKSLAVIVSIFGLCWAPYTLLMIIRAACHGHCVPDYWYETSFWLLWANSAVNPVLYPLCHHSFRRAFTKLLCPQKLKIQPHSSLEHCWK

Row | Structure (SMILES) | IC50 (human H3 receptor [1]) | IC50 (human H3 receptor [2])
1 | O=C(NCc1ccc2c(c1)CCN(C1CCC1)CC2)c1cnc(N2CCCC2)nc1 [Example 256, N-((3-cyclobutyl-2,3,4,5-tetrahydro-1H-benzo[d]azepin-7-yl)methyl)-2-(pyrrolidin-1-yl)pyrimidine-5-carboxamide] | 0.3 nM | 3 nM
2 | COc1ccc(C(=O)NCc2ccc3c(c2)CCN(C2CC(O)C2)CC3)cn1 (stereo not drawn) [Example 262, N-((3-(3-hydroxycyclobutyl)-2,3,4,5-tetrahydro-1H-benzo[d]azepin-7-yl)methyl)-6-methoxynicotinamide] | 25 nM | 10 nM
3 | Cc1noc(C)c1C(=O)NCc1ccc2c(c1)CCN(C1CCC1)CC2 [Example 263, N-[(3-cyclobutyl-2,3,4,5-tetrahydro-1H-3-benzazepin-7-yl)methyl]-3,5-dimethyl-1,2-oxazole-4-carboxamide] | 18 nM | 6 nM
4 | C[C@@H]1CCCN1C(=O)NCc1ccc2c(c1)CCN(C1CCC1)CC2 [Example 265, (R)—N-((3-cyclobutyl-2,3,4,5-tetrahydro-1H-benzo[d]azepin-7-yl)methyl)-2-methylpyrrolidine-1-carboxamide] | 6 nM | 4 nM
5 | O=C1CCCN1Cc1ccc2c(c1)CCN(C1CCC1)CC2 [Example 304, 1-((3-cyclobutyl-2,3,4,5-tetrahydro-1H-benzo[d]azepin-7-yl)methyl)pyrrolidin-2-one] | 61 nM | 34 nM
6 | CCCOc1ccc(C(=O)NCc2ccc3c(c2)CCN(C2CCC2)CC3)cn1 [Example 306, N-((3-cyclobutyl-2,3,4,5-tetrahydro-1H-benzo[d]azepin-7-yl)methyl)-6-propoxynicotinamide] | 18 nM | 2 nM
